Test: Antagonist activity at CCR9 receptor in human MOLT4 cells assessed as inhibition of CCl25-mediated cell migration preincubated for 30 mins followed CCL25 addition incubated for 2 hrs by ChemoTx plate system
`CC(C)(C)c1ccc(S(=O)(=O)Nc2ccc(Cl)c3c2C(=O)N(Cc2cccnc2)C3=O)cc1` [US9969687, Compound 64] gave a Ki of 357 nM.
Molecule `CC(C)(C)c1ccc(S(=O)(=O)Nc2ccc(Cl)c3c2C(=O)N(Cc2ccc[n+]([O-])c2)C3=O)cc1` [US9969687, Compound 65] has a Ki of 38 nM.
With `COc1ccncc1N1C(=O)c2c(Cl)ccc(NS(=O)(=O)c3ccc(C(C)(C)C)cc3)c2C1=O` [US9969687, Compound 119] the Ki was 3 nM.
In the case of `Cc1ncccc1N1C(=O)c2c(Cl)ccc(NS(=O)(=O)c3ccc(C(C)(C)C)cc3)c2C1=O` [US9969687, Compound 175], the Ki is reported as 14 nM.
`Cc1c(N2C(=O)c3c(Cl)ccc(NS(=O)(=O)c4ccc(C(C)(C)C)cc4)c3C2=O)ccc[n+]1[O-]` [US9969687, Compound 176] showed a Ki of 24 nM.
For `COc1ncccc1N1C(=O)c2c(Cl)ccc(NS(=O)(=O)c3ccc(C(C)(C)C)cc3)c2C1=O` [US9969687, Compound 183], the Ki was 32 nM.
For `COc1c(N2C(=O)c3c(Cl)ccc(NS(=O)(=O)c4ccc(C(C)(C)C)cc4)c3C2=O)ccc[n+]1[O-]` [US9969687, Compound 194], the Ki was 113 nM.
Work on `CC(C)(C)c1ccc(S(=O)(=O)Nc2ccc(Cl)c3c2C(=O)N(Cc2cccc[n+]2[O-])C3=O)cc1` [US9969687, Compound 199] yielded a Ki of 40 nM.
`CC(C)(C)c1ccc(S(=O)(=O)Nc2ccc(Cl)c3c2C(=O)N(Cc2ccncc2)C3=O)cc1` [US9969687, Compound 201] showed a Ki of over 100 nM.
Molecule `CC(C)(C)c1ccc(S(=O)(=O)Nc2ccc(Cl)c3c2C(=O)N(c2cccnc2F)C3=O)cc1` [US9969687, Compound 218] has a Ki of 91 nM.
With `CC(C)(C)c1ccc(S(=O)(=O)Nc2ccc(Cl)c3c2C(=O)N(c2ccccn2)C3=O)cc1` [US9969687, Compound 222] the Ki was 9 nM.
Molecule `Cc1ccc(N2C(=O)c3c(Cl)ccc(NS(=O)(=O)c4ccc(C(C)(C)C)cc4)c3C2=O)c(C)n1` [US9969687, Compound 224] has a Ki of over 300 nM.
Molecule `Cc1cccc(N2C(=O)c3c(Cl)ccc(NS(=O)(=O)c4ccc(C(C)(C)C)cc4)c3C2=O)n1` [US9969687, Compound 228] has a Ki of 19 nM.
